# Measurements: article PMC12830207, “Targeting the protein–protein interaction between the CDC37 cochaperone and client kinases by an allosteric RAF dimer breaker” (The Journal of Biological Chemistry, 2025)
# How the values were obtained:
# HCT116 proteome = assay: Global proteomic identification of braftide-regulated proteins (LC–MS/MS) in HCT116; assay type: cell-based, human; settings: HCT116, 10 μM braftide, 1 h
# Method: HCT116 cells were treated in the absence and presence of 10 μM TAT–braftide, 1 h, 37 °C. Cell pellets were harvested in PBS and cryopreserved. Samples were sent to be lysed and identified through MS in three biological replicates (LC–MS/MS; The Wistar Institute). Data were processed through the previously reported GO analysis via the Panther database ([42]) and plotted on Origin (OriginLab Corporation). For the volcano plot, the cutoff for the presented data is p = 0.01 (∗∗), q value <0.05 (Student's t test value adjusted for multiple comparisons using the Benjamini–Hochberg false discovery rate correction) and detected in at least two or more replicates. A total of 5405 proteins were identified, emphasizing a twofold change in NeonGreen and in red. Source data are available in the supporting information files.
# BRAF–CDC37 interaction = assay: NanoBiT luminescence CDC37–RAF interaction reporter assay, BRAF^SmBiT–CDC37^LgBiT; assay type: cell-based, human (HEK293)
# Source text: NanoBiT cytomegalovirus MCS BiBiT vector, which contains a BRAF N terminal fused with LgBiT and CRAF N terminal fused with SmBiT, was purchased from Promega. CDC37 LgBiT and CRAF SmBiT was generated using the standard Gibson Assembly (NEB HiFi Assembly) using NanoBiT BiBiT as the vector and following primers: 5′ […] 3′, 5′ […] 3′, 5′ […] 3′, 5′ […] 3′, and CDC37 LgBiT and BRAF SmBiT was generated using the standard Gibson Assembly using NanoBiT BiBiT as the vector and following primers: 5′ […] 3′, 5′ […] 3′, 5′ […] 3′, 5′ […] 3′. Primers were designed to introduce H20A, N22A, I23A triple mutation within the CDC37 FLAG tag and for NanoBiT construct CDC37(HNI/A) LgBit and BRAF SmBiT. Primers were designed to introduce the desired substitutions. The forward primer sequence was 5′ gccgcc[…] 3′, and the reverse primer sequence was 5′ gggggc[…] 3′. Site-directed mutagenesis was carried out using the Q5 Site-Directed Mutagenesis Kit (NEB; E0554) following the manufacturer's protocol.
# Twenty-four hours post-transfection, cells were trypsinized, pelleted, resuspended in OptiMEM + 4% fetal bovine serum, and reseeded onto a 96-well plate at 5(10)^4 cells per well and then incubated at 37 °C overnight. Cells were pretreated with 1 μM bortezomib for 5 h and then braftide for 4 h at 0 and 25 μM. After treatment, 10 μM furimazine substrate was added to each well, and luminescence readings were taken at 470 to 480 nm using a CLARIOstar plate reader. Statistical significance was determined through a paired t test where indicated, followed by Tukey's honest significant difference post hoc test with corresponding p values (∗p < 0.05, ∗∗p < 0.01, and ∗∗∗p < 0.001). All graph bars represent the mean ± SD with individual data points per biological replicate with corresponding p values.
# CRAF = CRAF ubiquitination (IP of MBP-CRAF-FLAG, ubiquitin immunoblot); assay type: cell-based, human (HEK293); settings: HEK293, MBP-CRAF-FLAG, 50 μM braftide, bortezomib pretreatment
# Method: HEK293 cells were seeded at 1(10)^6 cells per well for a 6-well plate or 5(10)^6 for 10 cm dishes and incubated until 40% to 60% confluency. Transfection was carried out using a 1:3 DNA:PEI-MAX ratio in OPTI-MEM and allowed 48 h for protein expression. For peptide assays, 48 h post-transfection, cells were treated with TAT–braftide carried in OPTI-MEM at indicated concentrations. Cells were harvested in cold PBS. Harvested cells were lysed in 4% SDS or modified radioimmunoprecipitation assay (RIPA) for co-IP experiments. Quantification of total protein by the bicinchoninic acid assay was carried out according to the manufacturer's protocols (Pierce; catalog no.: 23225).
# Transfected HEK293 cells were treated with the indicated treatments and harvested in cold PBS. […] Samples were analyzed via immunoblot.
# Western blot band densities were quantified with ImageJ software (National Institutes of Health) and normalized to the indicated loading control. Statistical significance was determined through one-/two-way ANOVA, where indicated, followed by Tukey's honest significant difference post hoc test with corresponding p values (∗p < 0.05, ∗∗p < 0.002, ∗∗∗p < 0.0002, and ∗∗∗∗p < 0.0001). […]
substance,measurement,setting,value
GRKKRRQRRRPQ-miniPEG-TRHVNILLFM [Braftide],"FoldChange Treat/NoTreat, COA3","HCT116 proteome; protein COA3 (Q9Y2R0), q-value 1.02E-05, LFQ, missing values imputed",76.35
same,"FoldChange Treat/NoTreat, HPX","HCT116 proteome; protein HPX (P02790), q-value 0.000814707, LFQ",99.13
same,"FoldChange Treat/NoTreat, PDK2","HCT116 proteome; protein PDK2 (Q15119), q-value 1.74E-05, LFQ, missing values imputed",40.24
same,"FoldChange Treat/NoTreat, RNF169","HCT116 proteome; protein RNF169 (Q8NCN4), q-value 4.15E-05, LFQ, missing values imputed",48.52
same,"FoldChange Treat/NoTreat, TOMM6","HCT116 proteome; protein TOMM6 (Q96B49), q-value 1.36E-06, LFQ, missing values imputed",129.15
same,"NanoBiT luminescence, BRAF^SmBiT–CDC37^LgBiT","BRAF–CDC37 interaction; HEK293, 25 μM braftide, 4 h, 1 μM bortezomib pretreatment 5 h, 10 μM furimazine, 470 to 480 nm","reduction in luminescence, reflecting a decrease in the CDC37–RAF interaction"
same,protein levels of NanoBiT constructs (immunoblot control),"BRAF–CDC37 interaction; HEK293, braftide, bortezomib pretreatment, BRAF and CRAF constructs (Fig. 1, K and M)",protein levels remained the same with bortezomib pretreatment
same,CRAF ubiquitination,CRAF,increased CRAF ubiquitination
